Reference: patent publication US20140179681A1, “METHODS AND COMPOSITIONS OF TARGETED DRUG DEVELOPMENT” (priority 2010, published 2014)
Counter-ions that a name gives are not always drawn. Like-named read-outs stand apart in the source and are kept apart here.

Tests used:
MDBK line = assay: MTT Cell Proliferation Assay, MDBK cells; format: cell-based, bovine
Procedure, shortened: (§1)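 Each concentration ran in quadruplicate across duplicate plates, with compounds serially diluted in DMSO and delivered at 0.5% DMSO in 0.5% FBS medium for 3 days.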

[1] = system: epithelial carcinoma A431 cell line; assay: MTT Cell Proliferation Assay, A431 cells; format: cell-based; conditions: for MTT Assay IC50(A431/MDBK): ratio in parentheses: ratio MDBK IC50 / A431 IC50 (selectivity)
Procedure, shortened: as §1

EGFR = target: T1, EGFR (Homo sapiens, UniProt P00533); assay: EGFR in-cell Western (ICW) screening protocol (EGFR inhibition assay); format: cell-based; design: ICW 1 / ICW 2 / ICW Avg: unit not given here; conditions: for ICW assay: Table 10; for ICW Avg / ICW 1 / ICW 2: ICW assay; for ICW Avg: average of runs 1 and 2; for ICW 1: run 1; for ICW 2: run 2
T1 construct: host or cells: A431
T1 sequence (P00533 25-1210): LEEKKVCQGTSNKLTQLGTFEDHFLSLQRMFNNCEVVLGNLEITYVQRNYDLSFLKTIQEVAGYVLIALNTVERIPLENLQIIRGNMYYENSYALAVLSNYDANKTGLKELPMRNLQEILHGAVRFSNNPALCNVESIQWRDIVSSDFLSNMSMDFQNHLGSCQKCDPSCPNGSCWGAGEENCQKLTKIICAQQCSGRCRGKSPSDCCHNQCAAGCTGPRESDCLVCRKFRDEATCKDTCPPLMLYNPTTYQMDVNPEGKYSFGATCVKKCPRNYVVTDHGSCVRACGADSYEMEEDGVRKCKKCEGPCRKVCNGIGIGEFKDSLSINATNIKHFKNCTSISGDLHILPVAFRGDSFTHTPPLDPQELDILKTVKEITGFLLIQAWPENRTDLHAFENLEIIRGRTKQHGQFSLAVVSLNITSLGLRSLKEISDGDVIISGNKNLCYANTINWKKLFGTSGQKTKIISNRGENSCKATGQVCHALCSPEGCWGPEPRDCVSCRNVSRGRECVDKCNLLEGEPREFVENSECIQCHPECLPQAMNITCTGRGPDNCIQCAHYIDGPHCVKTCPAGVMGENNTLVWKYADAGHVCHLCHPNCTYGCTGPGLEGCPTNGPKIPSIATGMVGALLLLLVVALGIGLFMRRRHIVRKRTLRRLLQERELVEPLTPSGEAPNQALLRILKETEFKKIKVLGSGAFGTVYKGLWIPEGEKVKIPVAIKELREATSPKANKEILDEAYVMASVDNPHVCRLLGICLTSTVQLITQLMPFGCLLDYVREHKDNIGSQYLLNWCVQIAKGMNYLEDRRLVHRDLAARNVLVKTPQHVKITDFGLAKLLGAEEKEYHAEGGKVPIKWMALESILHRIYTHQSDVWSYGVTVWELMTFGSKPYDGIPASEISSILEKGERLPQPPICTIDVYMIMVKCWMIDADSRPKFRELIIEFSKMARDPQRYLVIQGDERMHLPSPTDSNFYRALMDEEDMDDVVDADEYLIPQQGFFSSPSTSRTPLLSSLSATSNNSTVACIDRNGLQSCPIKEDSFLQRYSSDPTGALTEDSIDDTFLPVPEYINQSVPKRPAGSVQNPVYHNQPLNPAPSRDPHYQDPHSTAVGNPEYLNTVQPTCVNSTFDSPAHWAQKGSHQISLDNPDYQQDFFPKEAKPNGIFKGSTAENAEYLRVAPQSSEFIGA
Procedure, shortened: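 In-cell Western read-out: fixed A431 cells were co-stained for total EGFR and phospho-EGFR (Tyr1173; some runs Tyr1045). Before fixation, cells were serum-starved for 2 h, exposed to compound for 4 h, then given EGF for 10 min, usually at 10 ng/ml final (6.6 or 12.5 ng/ml in some runs).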

[2] = Homo sapiens, A-431, first value of 'a/b (c)', taken as A431 cells, read-out: MTT Screen, first value of cell
[3] = Bos taurus, MDBK, second value of 'a/b (c)', taken as MDBK cells, read-out: MTT Screen, second value of cell
[4] = Bos taurus, MDBK, 72 h, Table 10, second of x/y(ratio): MDBK, three day treatment, unit not printed (doses in μM), read-out: MTT assay (second value)
[5] = Homo sapiens, A-431, 72 h, Table 10, first of x/y(ratio): A431, three day treatment, unit not printed (doses in μM), read-out: MTT assay (first value)
[6] = % Inhibition of EGF dependent EGFR phosphorylation in A431 cells, compound 125 μM in assay
[7] = Bos taurus, MDBK, MDBK cells, second value of cell, read-out: MTT Assay IC50(A431/MDBK): MDBK
[8] = Homo sapiens, A-431, A431 cells, first value of cell, read-out: MTT Assay IC50(A431/MDBK): A431

Row | IC50 [1, 2] | ICW Screen (ICW Inhibition) (EGFR) | IC50 [1, 8] | MTT Assay IC50(A431/MDBK): ratio in parentheses [1] | ICW Avg (EGFR) | ICW 1 (EGFR) | ICW 2 (EGFR) | SMILES | IC50 (MDBK line; [3]) | IC50 (MDBK line; [7]) | further results
1 | 32.5 µM | 33.588 |  |  |  |  |  | CC1CCN(S(=O)(=O)c2ccc(NC(=S)NC(=O)C(C)C)cc2)CC1 [AD4-11977] |  |  | MTT Screen, second value of cell (MDBK line; second value of 'a/b (c)', taken as MDBK cells): non- conver- gent
2 | 11.4 µM | 31.958 |  |  |  |  |  | CCN(c1ccccc1)S(=O)(=O)c1ccc(NC(=S)NC(=O)Cc2ccccc2)cc1 [AD4-11412] | 20 µM |  | 
3 |  |  |  |  |  |  |  | Cc1cc(C)c(NS(=O)(=O)c2ccc(NC(=S)Nc3ccccc3F)cc2)c(C)c1 [AD4-12395] |  |  | IC50 (MDBK line; [4]): 6.96 µM; IC50 [1, 5]: 7.92 µM; ICW assay (EGFR; [6]): 57.5206
4 |  |  | 17.6 µM | 1.45 | 34.32 | 37.65 | 30.99 | O=c1[nH]c(Nc2nc(-c3ccccc3)c3cc(Cl)ccc3n2)nc2ccccc12 [11706 + TFA] |  | 25.4 µM | 
5 | 6.53 µM | 27.373 |  |  |  |  |  | Cc1cc(C)cc(NS(=O)(=O)c2ccc(NC(=S)NC(=O)CC(C)C)cc2)c1 [AD4-12017] | 5.93 µM |  | 
6 |  |  |  |  |  |  |  | COc1cccc(NC(=S)Nc2ccc(S(=O)(=O)Nc3ccc(Cl)cc3)cc2)c1 [AD4-12411] |  |  | IC50 (MDBK line; [4]): 5.18 µM; IC50 [1, 5]: 6.7 µM; ICW assay (EGFR; [6]): 34.0556
7 | 6.61 µM | 43.515 |  |  |  |  |  | CC(C)CC(=O)NC(=S)Nc1ccc(S(=O)(=O)NC2CCCCC2)cc1 [AD4-12041] | 14.3 µM |  | 
8 | 21.9 µM | 33.331 |  |  |  |  |  | COc1ccc(NS(=O)(=O)c2ccc(NC(=S)NC(=O)CCC(=O)OCCc3ccccc3)cc2)cc1 [AD4-12149] | 36.2 µM |  | 
9 | 42.8 µM | 51.845 |  |  |  |  |  | COc1ccccc1/C=C/C(=O)NC(=S)Nc1ccc(S(=O)(=O)Nc2nc(C)cc(C)n2)cc1 [AD4-12148] | 39.2 µM |  | 
10 |  |  |  |  |  |  |  | COC(=O)c1sc2cc(NC(=S)Nc3ccc(S(=O)(=O)Nc4c(C)cc(C)cc4C)cc3)ccc2c1Cl [AD4-12560] |  |  | IC50 (MDBK line; [4]): 5.23 µM; IC50 [1, 5]: 8.88 µM; ICW assay (EGFR; [6]): 42.3275
11 | 15.1 µM | 48.543 |  |  |  |  |  | Cc1ccc(NS(=O)(=O)c2ccc(NC(=S)NC(=O)C3CC3)cc2)c(C)c1 [AD4-12097] | 9.85 µM |  | 
12 |  |  | 20.2 µM | 1.76 | 25.04 | 31.91 | 18.16 | CCOc1ccc2nc(Nc3ncc4c(n3)CC(c3ccco3)CC4=O)nc(C)c2c1 (stereo not drawn) [11674 + TFA] |  | 35.5 µM | 
13 | 17.5 µM | 75.826 |  |  |  |  |  | CC(C)CC(=O)NC(=S)Nc1ccc(S(=O)(=O)Nc2ccccc2)cc1 [AD4-11975] | 17.2 µM |  | 
14 |  |  | 19.3 µM | 1.55 | 50.98 | 55.87 | 46.08 | Cc1ccc(-c2cc(=O)[nH]c(Nc3nc(C)c4ccc(C)cc4n3)n2)cc1 [12604 + TFA] |  | 30 µM | 
15 | 17.1 µM | 47.822 |  |  |  |  |  | COc1ccc(NS(=O)(=O)c2ccc(NC(=S)NC(=O)CC(C)C)cc2)cc1 [AD4-12040] | 14.8 µM |  | 
16 | 63.2 µM | 34.334 |  |  |  |  |  | O=C(NC(=S)Nc1ccc(S(=O)(=O)Nc2ccccc2)cc1)C1CCC1 [AD4-12044] | 33.1 µM |  | 
17 |  |  | 6.43 µM | 3.08 | 33.47 | 29.81 | 37.13 | Cc1ccc2nc(Nc3nc(=O)c(Cc4ccccc4)c(C)[nH]3)nc(C)c2c1 [compound 11294] |  | 19.8 µM | 
18 |  |  | 3.57 µM | 7.98 | 40.45 | 32.19 | 48.71 | COc1cccc(-c2cc(=O)[nH]c(Nc3nc(C)c4cccc(C)c4n3)n2)c1 [compound 11474] |  | 28.5 µM | 
19 |  |  | 33.5 µM | 0.43 | 25.68 | 29.51 | 21.86 | COc1ccccc1-c1cc(=O)[nH]c(Nc2nc(C)c3cc(C)c(C)cc3n2)n1 [11746 + TFA] |  | 14.4 µM | 

Row | IC50 [1, 2] | ICW Screen (ICW Inhibition) (EGFR) | IC50 [1, 8] | MTT Assay IC50(A431/MDBK): ratio in parentheses [1] | ICW Avg (EGFR) | ICW 1 (EGFR) | ICW 2 (EGFR) | SMILES | IC50 (MDBK line; [3]) | IC50 (MDBK line; [7]) | further results
20 |  |  | 63.2 µM | 0.44 | 33.57 | 42.10 | 25.04 | Cc1ccc2nc(Nc3nc(C(C)C)cc(=O)[nH]3)nc(C)c2c1 [12741 + TFA] |  | 28 µM | 
21 |  |  | 49.4 µM | 0.88 | 37.16 | 40.52 | 33.80 | Cc1ccc2nc(Nc3nc(=O)cc(CSc4ccc(Cl)cc4)[nH]3)nc(C)c2c1 [11826 + TFA] |  | 43.3 µM | 
22 |  | 59.637 |  |  |  |  |  | Cc1ccc(NS(=O)(=O)c2ccc(NC(=S)NC(=O)C3CCC3)cc2)cc1C [AD4-10676] | 8.84 µM |  | IC50 ([1]; first value of 'a/b (c)', taken as A431 cells, read-out: MTT Screen, first value of cell): 18.6 µM
23 |  |  | 35.1 µM | 0.46 | 31.05 | 37.00 | 25.09 | Cc1ccc(SCc2cc(=O)[nH]c(Nc3nc(C)c4cc(C)cc(C)c4n3)n2)cc1 [11727 + TFA] |  | 16.1 µM | 
24 |  |  | 36.9 µM | 1.20 | 39.92 | 37.43 | 42.40 | COc1ccc(-c2cc(=O)[nH]c(Nc3nc(C)c4ccccc4n3)n2)cc1OC [11471 + TFA] |  | 44.1 µM | 
25 |  |  | 14.2 µM | 1.99 | 26.67 | 39.76 | 13.58 | Cc1ccc2nc(Nc3nc(C)cc(C(F)(F)F)n3)nc(C)c2c1 [11816 + TFA] |  | 28.1 µM | 
26 |  |  | 29.7 µM | 0.64 | 25.32 | 21.34 | 29.30 | CCCCc1c(C)nc(Nc2nc(C)c3ccc(C)cc3n2)[nH]c1=O [12776 + TFA] |  | 19 µM | 
27 |  |  |  |  |  |  |  | CC1CCc2cc(F)ccc2N1S(=O)(=O)c1ccc(NC(=S)Nc2ccc(Cl)c(Cl)c2)cc1 (stereo not drawn) [AD4-12827] |  |  | IC50 (MDBK line; [4]): 6.4 µM; IC50 [1, 5]: 6.49 µM; ICW assay (EGFR; [6]): 45.9206
28 |  |  | 53.8 µM |  | 47.78 | 53.63 | 41.93 | COc1cccc2c(C)nc(Nc3nc(C(F)(F)F)cc(=O)[nH]3)nc12 [compound 11758] |  | 576 µM | 
29 | 41.5 µM | 44.908 |  |  |  |  |  | COc1ccc(NS(=O)(=O)c2ccc(NC(=S)NC(=O)C(C)C)cc2)cc1 [AD4-11971] | 41.1 µM |  | 
30 |  |  | 6.49 µM | 0.97 | 64.97 | 60.00 | 69.95 | Cc1cc(C)c2nc(Nc3nc(=O)c(C)c(C)[nH]3)nc(C)c2c1 [12645 + TFA] |  | 6.29 µM | 
31 |  |  |  |  |  |  |  | CCOc1ccccc1NC(=S)Nc1ccc(S(=O)(=O)Nc2ccc(Cl)c(Cl)c2)cc1 [AD4-12443] |  |  | IC50 (MDBK line; [4]): 6.91 µM; IC50 [1, 5]: 6.71 µM; ICW assay (EGFR; [6]): 44.7896
32 |  |  |  |  |  |  |  | O=S(=O)(Nc1ccccc1)c1ccc(NC(=S)Nc2cccc(Cl)c2)cc1 [AD4-12842] |  |  | IC50 (MDBK line; [4]): 5.55 µM; IC50 [1, 5]: 6.72 µM; ICW assay (EGFR; [6]): 80.8965
33 |  |  |  |  |  |  |  | CCc1cc2c(CN3CCN(C(c4ccccc4)c4ccccc4)CC3)cc(=O)oc2cc1O [AD4-10619] |  |  | IC50 (MDBK line; Bos taurus, MDBK, Table 11, second of x/y(ratio): MDBK, unit inferred, read-out: MTT Follow-up (second value)): 3.06 µM; IC50 ([1]; Homo sapiens, A-431, Table 11, first of x/y(ratio): A431, unit inferred, read-out: MTT Follow-up (first value)): 2.97 µM; MTT Screen, % @ […] ([1]; Table 11, @ […], cell line not stated): 87% @ 2.6 μM; ICW Screen (EGFR; Table 11, % Inhibition of EGF dependent EGFR phosphorylation in A431 cells, compound 125 μM in assay): −44.55
34 |  |  |  | 0.66 | 25.06 | 16.45 | 33.67 | COCc1cc(=O)nc(Nc2nc(C)c3cc(C)cc(C)c3n2)[nH]1 [12644 + TFA] |  |  | IC50 (MDBK line; MDBK cells, second value of cell, read-out: MTT Assay IC50(A431/MDBK): MDBK): 30.9 µM; IC50 ([1]; A431 cells, first value of cell, read-out: MTT Assay IC50(A431/MDBK): A431): 46.9 µM
35 |  |  |  |  |  |  |  | O=S(=O)(Nc1ccc(Cl)cc1)c1ccc(NC(=S)Nc2ccccc2C(F)(F)F)cc1 [AD4-12435] |  |  | IC50 (MDBK line; [4]): 6.15 µM; IC50 [1, 5]: 6.67 µM; ICW assay (EGFR; [6]): 41.4281
36 | 51 µM | 32.432 |  |  |  |  |  | COc1ccc(/C=C/C(=O)NC(=S)Nc2ccc(S(=O)(=O)Nc3cc(C)on3)cc2)cc1 [AD4-11867] | 48.1 µM |  | 
37 |  |  |  |  |  |  |  | Cc1ccc(NC(=S)Nc2ccc(S(=O)(=O)Nc3ccc(Cl)cc3)cc2)cc1Cl [AD4-12505] |  |  | IC50 (MDBK line; [4]): 6.02 µM; IC50 [1, 5]: 5.69 µM; ICW assay (EGFR; [6]): 93.3284
